Inhibition and IC50 data for ten compounds are collected here from ChEMBL document CHEMBL4184307, “Identification of caffeoylquinic acid derivatives as natural protein tyrosine phosphatase 1B inhibitors from Artemisia princeps” (Bioorg Med Chem Lett, 2018).

Assay [1] has as its target T1, Tyrosine-protein phosphatase non-receptor type 1 (Homo sapiens) (UniProt P18031).
T1 sequence (whole entry): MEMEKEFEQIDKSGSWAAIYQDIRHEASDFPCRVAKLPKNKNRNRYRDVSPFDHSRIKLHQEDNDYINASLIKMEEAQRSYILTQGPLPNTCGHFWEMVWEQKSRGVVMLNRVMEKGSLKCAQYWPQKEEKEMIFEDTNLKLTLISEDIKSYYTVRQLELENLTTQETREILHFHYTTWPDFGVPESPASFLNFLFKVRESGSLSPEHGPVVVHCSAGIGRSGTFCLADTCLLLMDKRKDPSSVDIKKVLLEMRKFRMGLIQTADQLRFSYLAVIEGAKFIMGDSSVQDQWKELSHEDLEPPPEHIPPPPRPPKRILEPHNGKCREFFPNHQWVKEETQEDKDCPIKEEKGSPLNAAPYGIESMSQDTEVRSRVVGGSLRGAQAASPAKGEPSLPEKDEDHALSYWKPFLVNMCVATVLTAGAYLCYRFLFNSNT
The experiment in a line: (§1) Inhibition of PTP1B (unknown origin).

Assay [2] concerns the target T2, Tyrosine-protein phosphatase non-receptor type 1 (Homo sapiens, UniProt P18031).
T2 sequence (P18031 whole entry): T1 sequence (whole entry)
The assay is described as §1.

Assay [3] deals with T3, Tyrosine-protein phosphatase non-receptor type 11 (Homo sapiens) (UniProt Q06124).
T3 sequence (whole entry): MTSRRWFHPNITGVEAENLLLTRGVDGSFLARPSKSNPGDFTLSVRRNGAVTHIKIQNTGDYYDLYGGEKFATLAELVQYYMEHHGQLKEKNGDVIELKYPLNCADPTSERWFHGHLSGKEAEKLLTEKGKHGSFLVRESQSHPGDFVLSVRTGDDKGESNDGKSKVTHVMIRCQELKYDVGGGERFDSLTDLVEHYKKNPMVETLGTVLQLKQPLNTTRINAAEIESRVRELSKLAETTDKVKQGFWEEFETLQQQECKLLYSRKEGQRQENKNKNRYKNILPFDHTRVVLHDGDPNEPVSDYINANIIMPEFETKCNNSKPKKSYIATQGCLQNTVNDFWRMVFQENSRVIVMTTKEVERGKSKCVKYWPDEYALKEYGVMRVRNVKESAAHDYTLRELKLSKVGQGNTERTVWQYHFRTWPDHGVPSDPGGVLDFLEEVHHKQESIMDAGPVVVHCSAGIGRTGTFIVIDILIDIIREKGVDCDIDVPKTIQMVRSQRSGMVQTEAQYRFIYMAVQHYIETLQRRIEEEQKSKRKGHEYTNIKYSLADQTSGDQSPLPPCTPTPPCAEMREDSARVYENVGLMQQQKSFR
The experiment in a line: Inhibition of SHP2 (unknown origin) at 100 uM relative to control.

Assay [4] concerns the target T1, Tyrosine-protein phosphatase non-receptor type 1 (Homo sapiens). The experiment in a line: Inhibition of PTP1B (unknown origin) at 100 uM relative to control.
The target of assay [5] is Dual specificity protein phosphatase 3 (Homo sapiens) (UniProt P51452). Briefly: Inhibition of VHR (unknown origin) at 100 uM relative to control.
Assay [6] deals with T4, Tyrosine-protein phosphatase non-receptor type 2 (Homo sapiens) (UniProt P17706).
T4 sequence (whole entry): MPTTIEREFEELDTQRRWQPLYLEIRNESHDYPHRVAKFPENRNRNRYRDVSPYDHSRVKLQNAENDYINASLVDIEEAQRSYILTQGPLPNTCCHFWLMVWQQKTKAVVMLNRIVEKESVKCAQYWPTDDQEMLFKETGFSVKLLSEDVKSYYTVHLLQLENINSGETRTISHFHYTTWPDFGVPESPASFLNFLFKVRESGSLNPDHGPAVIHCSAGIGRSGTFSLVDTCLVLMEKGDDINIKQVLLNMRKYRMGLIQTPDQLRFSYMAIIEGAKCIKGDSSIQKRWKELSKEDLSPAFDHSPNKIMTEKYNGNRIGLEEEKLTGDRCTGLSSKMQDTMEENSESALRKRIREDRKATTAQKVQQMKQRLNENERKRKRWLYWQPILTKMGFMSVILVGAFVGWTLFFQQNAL
The experiment in a line: Inhibition of TCPTP (unknown origin) at 100 uM relative to control.

Assay [7] has as its target T5, Tyrosine-protein phosphatase non-receptor type 2 (Homo sapiens, UniProt P17706).
T5 sequence (P17706 whole entry): T4 sequence (whole entry)
Briefly: Inhibition of TCPTP (unknown origin).

The target of assay [8] is Tyrosine-protein phosphatase non-receptor type 6 (Homo sapiens) (UniProt P29350). Briefly: Inhibition of SHP1 (unknown origin) at 100 uM relative to control.
Tyrosine-protein phosphatase non-receptor type 6 (Homo sapiens), sequence (P29350 whole entry): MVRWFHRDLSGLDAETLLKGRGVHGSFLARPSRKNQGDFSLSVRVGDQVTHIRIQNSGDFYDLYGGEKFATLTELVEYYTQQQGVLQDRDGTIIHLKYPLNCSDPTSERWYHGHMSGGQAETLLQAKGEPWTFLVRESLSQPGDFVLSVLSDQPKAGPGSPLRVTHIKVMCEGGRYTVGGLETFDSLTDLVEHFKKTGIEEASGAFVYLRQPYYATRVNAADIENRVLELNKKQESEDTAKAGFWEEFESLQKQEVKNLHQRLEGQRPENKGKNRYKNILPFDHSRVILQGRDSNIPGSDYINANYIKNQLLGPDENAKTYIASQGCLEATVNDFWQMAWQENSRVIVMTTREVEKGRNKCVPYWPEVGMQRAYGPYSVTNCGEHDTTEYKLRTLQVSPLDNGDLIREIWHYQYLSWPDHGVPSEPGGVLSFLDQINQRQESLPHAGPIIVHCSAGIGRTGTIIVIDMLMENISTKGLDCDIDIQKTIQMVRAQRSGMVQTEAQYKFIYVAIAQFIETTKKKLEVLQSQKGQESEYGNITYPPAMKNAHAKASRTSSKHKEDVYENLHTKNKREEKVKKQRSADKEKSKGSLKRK

Dual specificity protein phosphatase 3 (Homo sapiens), sequence (P51452 whole entry, looked up): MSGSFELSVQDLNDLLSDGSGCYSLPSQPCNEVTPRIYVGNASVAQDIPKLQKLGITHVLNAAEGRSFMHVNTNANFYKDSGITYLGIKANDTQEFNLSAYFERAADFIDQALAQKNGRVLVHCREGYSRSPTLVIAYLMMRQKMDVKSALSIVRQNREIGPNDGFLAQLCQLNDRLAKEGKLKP

Turning to `O=C(/C=C/c1ccc(O)c(O)c1)O[C@H]1[C@H](O)C[C@](O)(C(=O)O)C[C@H]1O`, in assay [1], the inhibition entry was “Dose-dependent effect”. In addition, the IC50 in assay [2] is 43.9 µM.
For `COC(=O)[C@]1(O)C[C@@H](OC(=O)/C=C/c2ccc(O)c(O)c2)[C@@H](O)[C@H](OC(=O)/C=C/c2ccc(O)c(O)c2)C1`, in that order: “Dose-dependent effect” and 42.7 µM.
Take `O=C(/C=C/c1ccc(O)c(O)c1)O[C@H]1[C@H](O)C[C@](O)(C(=O)O)C[C@H]1OC(=O)/C=C/c1ccc(O)c(O)c1`: in assay [1], the inhibition entry was “Dose-dependent effect”. In addition, in assay [2], half-maximal inhibition (IC50) was put at 59.4 µM.
For the compound `O=C(/C=C/c1ccc(O)c(O)c1)O[C@@H]1C[C@](O)(C(=O)O)C[C@@H](O)[C@H]1O` [CHLOROGENIC ACID], the inhibition in assay [3] was 28.4%; in assay [4], 83.1%; in assay [5], 30.5%; in assay [6], 65.6%; in assay [1], “Dose-dependent effect”; in assay [8], 32%. This compound yielded an IC50 in assay [7] of 77.9 µM.
Consider `O=C(/C=C/c1ccc(O)c(O)c1)O[C@@H]1C[C@@](O)(C(=O)O)C[C@@H](O)[C@@H]1O`, for which the inhibition entry in assay [1] was “Dose-dependent effect”.
On to `COC(=O)[C@]1(O)C[C@@H](O)[C@@H](OC(=O)/C=C/c2ccc(O)c(O)c2)[C@H](OC(=O)/C=C/c2ccc(O)c(O)c2)C1`, for which, in assay [1], the inhibition entry was “Dose-dependent effect”. Further, the midpoint of inhibition in assay [2], the IC50, lay at 56 µM.
`O=C(/C=C/c1ccc(O)c(O)c1)O[C@@H]1[C@H](O)C[C@@](O)(C(=O)O)C[C@H]1OC(=O)/C=C/c1ccc(O)c(O)c1`: the inhibition result in assay [1] was “Dose-dependent effect”. In addition, the IC50 in assay [2] came out at 41.5 µM.
Consider `COc1cc(/C=C/C(=O)O[C@H]2[C@H](O)C[C@](O)(C(=O)O)C[C@H]2OC(=O)/C=C/c2ccc(O)c(OC)c2)ccc1O`, for which the inhibition entry in assay [1] was “Dose-dependent effect”. In assay [2], the 50% inhibitory concentration (IC50) stood at 67.1 µM.
Turning to `O=C(/C=C/c1ccc(O)c(O)c1)O[C@@H]1C[C@](O)(C(=O)O)C[C@@H](OC(=O)/C=C/c2ccc(O)c(O)c2)[C@H]1O`, in assay [1], the inhibition result is “Dose-dependent effect”. In assay [2], this compound displayed a half-inhibitory concentration (IC50) of 37.9 µM.
In the case of `O=C(/C=C/c1ccc(O)c(O)c1)O[C@@H]1C[C@](OC(=O)/C=C/c2ccc(O)c(O)c2)(C(=O)O)C[C@@H](O)[C@H]1O` [1,5-O-TRANS-DICAFFEOYLQUINIC ACID], in assay [1], the inhibition entry is “Dose-dependent effect”. The IC50 in assay [2] amounted to 35.4 µM.
